Results taken from patent US9796707B2, “Piperazine derivatives for treating disorders” (The University of Nottingham, priority 2014, dated 2017).

Legend:
[1] = Scleral permeability, modified Ussing chamber; assay type: in vitro ADME; conditions: rabbit
Procedure: Scleral permeability was measured using a modified Ussing chamber assembly in isotonic assay buffer (pH 7.4). Rabbit or porcine excised eye tissues were mounted in the chambers such that the episcleral side faced the donor chamber and the retinal side faced the receiver chamber. The chambers were filled with equal volumes of assay buffer, with (donor side) or without (receiver side) 1 μg/ml compound. After 4 or 24 hours tissue was removed from the chamber and the receiver side (“vitreous”) sampled. Tissue was dissected into sclera, choroid/RPE, and retina and homogenised.
After 0, 4 or 24 hours, the fluid from the bottom chamber (vitreous) and the retinal tissue was isolated and compounds purified by acetonitrile extraction and HPLC.

[2] = Solubility in water
[3] = system: choroidal neovascularisation; conditions: mouse CNV, eye drops, previously shown; cited from earlier work
[4] = assay type: cell-based
Description: To test whether compounds of Formula (I) are safe to administer to patients we began a basic safety test of these compounds in vitro.

[5] = mouse, in vivo
Procedure: Mice were treated for six days with 2 μg per eye SPHINX31 as eye drops, and ERG carried out using a Micron IV Ganzfield ERG system as recommended by the manufacturers instructions.
Scotopic ERG recordings were taken in dark adapted animals following stimulation with increasing intensities of green (FIGS. 20A, 20C, 20E, 20G) light (to activate M-cones and rods) or UV (FIGS. 20B, 20D, 20F, 20H) light (to activate S-cones and rods). […] ERG amplitude at different intensities of green (FIGS. 20C, 20E) or UV (FIGS. 20D, 20F) are shown for the A wave (FIGS. 20C, 20D) and B wave (FIGS. 20E, 20F).

[6] = Half life in human liver microsomes
Description: We also tested the half life of these compounds when exposed to human liver microsomes.

[7] = system: SRSF1 nuclear localisation in PC3 prostate cancer cells; experiment: SRSF1 localisation by immunofluorescence
[8] = system: SRSF1 nuclear localisation in MDA-MB231 cells; experiment: SRSF1 localisation by immunofluorescence
[9] = system: neovascular AMD; conditions: 0.5 mg monthly, at one year; cited from earlier work

Molecule: Cc1ccc(Nc2nccc(N(C)c3ccc4c(C)n(C)nc4c3)n2)cc1S(N)(=O)=O [pazopanib]
- detection in retina ([1]; 4 hrs): could not
- detection in vitreous (bottom chamber) ([1]; 4 hrs): could not
- detection in vitreous (bottom chamber) ([1]; 24 hours): detected

Molecule: O=C(Nc1cc(C(F)(F)F)ccc1N1CCN(Cc2ccncc2)CC1)c1ccc(-c2ccncc2)o1 [Compound 14]
- solubility in water of salt forms [2]: more freely soluble in water

Molecule: O=C(Nc1cc(C(F)(F)F)ccc1N1CCCCC1)c1ccncc1 [SRPIN340]
- eye drop concentration of maximum effect [3]: 10 µg/mL

Molecule: CN(C)CCN1CCN(c2ccc(C(F)(F)F)cc2NC(=O)c2ccc(-c3ccncc3)o2)CC1 [SPHINX7]
- toxic doses [4]: greater than 10 μM

Molecule: Cc1ccc(C(=O)Nc2cc(C(F)(F)F)ccc2N2CCOCC2)o1 [SPHINX]
- eye drop concentration of maximum effect [3]: 10 µg/mL

Molecule: O=C(Nc1cc(C(F)(F)F)ccc1N1CCN(Cc2cccnc2)CC1)c1ccc(-c2ccncc2)o1 [Compound 13]
- solubility in water of salt forms [2]: more freely soluble in water

Molecule: O=C(Nc1cc(C(F)(F)F)ccc1N1CCN(Cc2ccccn2)CC1)c1ccc(-c2ccncc2)o1 [Compound 12]
- effect on scotopic or photopic activity [5]: No effect
- solubility in water of salt forms [2]: more freely soluble in water
- Half life [6]: 1.025 h
- SRSF1 localisation [7]: inhibited cellular localisation
- SRSF1 localisation [8]: inhibited cellular localisation

B1: Lucentis: novel humanized anti-VEGF antibody fragment (antibody, chains of the INN, looked up, V domains shown)
VH: EVQLVESGGGLVQPGGSLRLSCAASGYDFTHYGMNWVRQAPGKGLEWVGWINTYTGEPTYAADFKRRFTFSLDTSKSTAYLQMNSLRAEDTAVYYCAKYPYYYGTSHWYFDVWGQGTLVTVSS
VL: DIQLTQSPSSLSASVGDRVTITCSASQDISNYLNWYQQKPGKAPKVLIYFTSSLHSGVPSRFSGSGSGTDFTLTISSLQPEDFATYYCQQYSTVPWTFGQGTKVEIK
modifications: Fab
notes: novel humanized anti-VEGF antibody fragment
- patients who maintained visual acuity (loss of <15 letters) [9]: approximately 95%
- patients with improved vision (gain of ≧15 letters) [9]: ≤ 40%
